From PMC10882719 (Frontiers in Neuroscience, 2024)
Like-named read-outs stand apart in the source and are kept apart here.

Assays:
Assay type in all cases: cell-based
168 GPCRs [1] = target: T1, 168 GPCRs (Homo sapiens, UniProt O43613)
T1 construct: host or cells: PathHunter cell lines
T1 sequence (O43613 1-425): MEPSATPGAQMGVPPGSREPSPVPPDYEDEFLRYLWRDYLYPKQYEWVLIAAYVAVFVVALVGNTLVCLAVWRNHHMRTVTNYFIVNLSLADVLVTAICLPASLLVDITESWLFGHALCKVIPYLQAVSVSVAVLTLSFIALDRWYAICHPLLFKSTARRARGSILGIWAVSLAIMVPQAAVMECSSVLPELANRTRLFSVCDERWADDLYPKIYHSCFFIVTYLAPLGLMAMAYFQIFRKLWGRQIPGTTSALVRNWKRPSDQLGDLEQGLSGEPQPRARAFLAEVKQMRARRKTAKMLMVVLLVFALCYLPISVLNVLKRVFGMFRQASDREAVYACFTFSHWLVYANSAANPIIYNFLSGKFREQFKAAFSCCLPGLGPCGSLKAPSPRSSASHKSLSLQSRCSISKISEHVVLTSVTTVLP

168 GPCRs [2] = target: T2, 168 GPCRs (Homo sapiens, UniProt P48546); conditions: GIPR
T2 construct: host or cells: PathHunter cell lines
T2 sequence (P48546 22-466): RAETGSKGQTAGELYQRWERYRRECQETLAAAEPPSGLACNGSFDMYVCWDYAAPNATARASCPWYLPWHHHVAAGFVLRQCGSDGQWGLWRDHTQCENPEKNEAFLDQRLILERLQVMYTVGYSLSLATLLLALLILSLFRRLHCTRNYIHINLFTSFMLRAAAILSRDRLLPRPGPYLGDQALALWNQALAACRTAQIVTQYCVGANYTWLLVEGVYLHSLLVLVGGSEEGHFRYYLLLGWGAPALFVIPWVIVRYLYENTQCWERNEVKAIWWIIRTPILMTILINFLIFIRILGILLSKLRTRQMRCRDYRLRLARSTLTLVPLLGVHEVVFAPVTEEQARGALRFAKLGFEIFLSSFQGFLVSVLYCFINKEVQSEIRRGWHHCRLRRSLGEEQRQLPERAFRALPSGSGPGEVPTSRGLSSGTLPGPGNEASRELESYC

168 GPCRs [3] = target: T3, 168 GPCRs (Homo sapiens, UniProt Q9HC97)
T3 construct: host or cells: PathHunter cell lines

168 GPCRs [4] = target: T4, 168 GPCRs (Homo sapiens, UniProt P25024)
T4 construct: host or cells: PathHunter cell lines
T4 sequence (P25024 1-350): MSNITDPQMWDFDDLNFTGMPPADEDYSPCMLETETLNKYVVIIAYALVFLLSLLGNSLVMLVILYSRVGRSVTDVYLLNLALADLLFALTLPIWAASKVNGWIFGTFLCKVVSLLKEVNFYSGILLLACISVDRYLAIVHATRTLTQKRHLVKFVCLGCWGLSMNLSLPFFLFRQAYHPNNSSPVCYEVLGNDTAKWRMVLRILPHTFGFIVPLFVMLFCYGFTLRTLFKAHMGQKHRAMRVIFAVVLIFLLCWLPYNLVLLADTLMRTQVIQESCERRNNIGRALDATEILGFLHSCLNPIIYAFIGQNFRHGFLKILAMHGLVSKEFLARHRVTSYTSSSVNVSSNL

168 GPCRs [5] = target: T5, 168 GPCRs (Homo sapiens, UniProt P55085)
T5 construct: host or cells: PathHunter cell lines
T5 sequence (P55085 26-397): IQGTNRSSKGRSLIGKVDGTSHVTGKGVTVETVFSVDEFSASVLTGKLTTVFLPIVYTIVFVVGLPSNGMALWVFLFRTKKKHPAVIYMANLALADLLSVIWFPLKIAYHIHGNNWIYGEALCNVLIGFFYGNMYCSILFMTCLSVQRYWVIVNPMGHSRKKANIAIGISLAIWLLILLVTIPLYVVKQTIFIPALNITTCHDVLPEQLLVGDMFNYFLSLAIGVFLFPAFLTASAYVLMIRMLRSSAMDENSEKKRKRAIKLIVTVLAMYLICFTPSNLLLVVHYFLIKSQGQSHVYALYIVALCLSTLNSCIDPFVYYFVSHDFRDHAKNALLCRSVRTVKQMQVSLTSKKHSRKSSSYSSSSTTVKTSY

T3 sequence (Q9HC97 whole entry): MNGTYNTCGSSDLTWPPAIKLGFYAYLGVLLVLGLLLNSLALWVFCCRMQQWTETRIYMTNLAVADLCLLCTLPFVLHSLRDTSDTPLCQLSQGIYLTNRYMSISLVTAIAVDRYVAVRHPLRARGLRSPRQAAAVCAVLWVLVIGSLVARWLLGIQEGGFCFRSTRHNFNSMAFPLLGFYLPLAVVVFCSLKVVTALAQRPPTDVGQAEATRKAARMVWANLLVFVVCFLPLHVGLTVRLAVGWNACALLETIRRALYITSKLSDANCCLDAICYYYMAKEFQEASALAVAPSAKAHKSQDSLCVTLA

Row | Compound | % Agonist Activity (168 GPCRs [1]; HCRTR1, 1 uM) | % Antagonist Activity (168 GPCRs [1]; HCRTR1, 1 uM) | % Agonist Activity (168 GPCRs [1]; HCRTR1, 10 uM) | % Antagonist Activity (168 GPCRs [1]; HCRTR1, 10 uM) | % Agonist Activity (168 GPCRs [2]; 1 uM) | % Antagonist Activity (168 GPCRs [2]; 1 uM) | % Agonist Activity (168 GPCRs [2]; 10 uM) | % Antagonist Activity (168 GPCRs [2]; 10 uM) | % Agonist Activity (168 GPCRs [3]; GPR35, 1 uM) | % Antagonist Activity (168 GPCRs [3]; GPR35, 1 uM) | % Agonist Activity (168 GPCRs [3]; GPR35, 10 uM) | % Antagonist Activity (168 GPCRs [3]; GPR35, 10 uM) | % Agonist Activity (168 GPCRs [4]; CXCR1, 1 uM) | % Antagonist Activity (168 GPCRs [4]; CXCR1, 1 uM) | % Agonist Activity (168 GPCRs [4]; CXCR1, 10 uM) | % Antagonist Activity (168 GPCRs [4]; CXCR1, 10 uM) | % Agonist Activity (168 GPCRs [5]; F2RL1, 1 uM) | % Antagonist Activity (168 GPCRs [5]; F2RL1, 1 uM) | % Agonist Activity (168 GPCRs [5]; F2RL1, 10 uM) | % Antagonist Activity (168 GPCRs [5]; F2RL1, 10 uM)
1 | CNC(C)C(=O)c1ccc2c(c1)OCO2 (stereo not shown) [methylone] | -0.1% | 2.3% | -0.1% | 1.2% | -2.9% | -1% | -5.8% | -5.1% | 2.2% | 13.2% | 2.5% | 7.3% | -0.5% | 12.1% | -0.1% | 3.1% | -0.6% | -26.8% | 3.8% | -16.2%
2 | CNC(C)Cc1ccc2c(c1)OCO2 (stereo not shown) [MDMA, 3,4-Methylenedioxy methamphetamine, reference compound] | -0.2% | 8.6% | -0.1% | 15% | -2.6% | -0.1% | -3.3% | -0.1% | 0.3% | -1.1% | -1.5% | 4.6% | -0.4% | -2.4% | -0.3% | -4.6% | 16.4% | 9.6% | 1.8% | 10.9%
